Measured values from patent publication US20120101032A1, “NOVEL MACROCYCLIC INHIBITORS OF HEPATITIS C VIRUS REPLICATION” (priority 2010, published 2012).
pEC50, pIC50: −log10 of the molar value. Where two headings read alike, the source gives them in different places.

Assays:
[1] = molecular target: NS3/NS4 complexes (Hepatitis C virus genotype 1a, UniProt P27958); assay: biochemical
From the text: NS3-NS4 inhibition activity can be determined using known assay methods. For example, NS3/NS4 complexes may be formed and inhibitory concentrations of test compounds determined as described in U.S. Patent Application Publication Number 2007/0054842 paragraph numbers 1497-1509, which is incorporated herein by reference in its entirety. Similarly, hepatitis C replicon EC50 may be determined using known assay methods such as described in U.S. Patent Application Publication Number 2007/0054842 paragraph numbers 1510-1515, which is incorporated herein by reference in its entirety. Assays may be conducted at ambient temperature (23° C.) in assay buffer containing 50 mM Tris-HCl, pH 7.5, 15% glycerol, 0.6 mM Lauryldimethylamine Oxide (LDAO), 25 μM NS4A peptide, and 10 mM Dithiothreitol (DTT).

[2] = system: hepatitis C replicon; assay: hepatitis C replicon EC50 assay; type: cell-based; details: Hepatitis C virus
From the text: NS3-NS4 inhibition activity can be determined using known assay methods.

[3] = NS3-NS4 activity, 23° C., pH 7.5, 25 μM NS4A peptide, read-out: IC50
[4] = hepatitis C replicon, read-out: EC50

Chain of NS3/NS4 complexes (P27958 1027-1657, one chain of several): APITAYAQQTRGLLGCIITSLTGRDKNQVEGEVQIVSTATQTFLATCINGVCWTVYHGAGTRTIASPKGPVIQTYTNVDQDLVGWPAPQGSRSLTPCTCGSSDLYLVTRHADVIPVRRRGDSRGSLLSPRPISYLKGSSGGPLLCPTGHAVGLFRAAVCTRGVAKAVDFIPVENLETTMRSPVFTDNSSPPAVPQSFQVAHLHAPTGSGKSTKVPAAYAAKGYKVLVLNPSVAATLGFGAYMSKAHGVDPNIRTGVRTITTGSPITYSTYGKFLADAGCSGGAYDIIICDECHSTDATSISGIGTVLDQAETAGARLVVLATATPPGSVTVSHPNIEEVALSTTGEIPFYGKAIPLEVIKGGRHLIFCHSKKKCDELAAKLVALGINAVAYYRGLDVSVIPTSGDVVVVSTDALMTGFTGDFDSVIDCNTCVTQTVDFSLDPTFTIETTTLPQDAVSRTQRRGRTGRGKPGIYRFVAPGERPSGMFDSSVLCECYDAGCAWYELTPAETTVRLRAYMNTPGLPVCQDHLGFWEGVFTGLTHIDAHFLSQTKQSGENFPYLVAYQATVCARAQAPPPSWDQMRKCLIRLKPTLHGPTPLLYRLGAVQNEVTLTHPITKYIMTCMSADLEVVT

Structure (SMILES)	pIC50 [1, 3]	pEC50 [2, 4]	pIC50 [1]	pEC50 [2]
COc1ccccc1-c1csc(-c2cccc3c2nc(O[C@@H]2C[C@H]4C(=O)N[C@]5(C(=O)NS(=O)(=O)N(C)C)C[C@H]5/C=C\CCCCC[C@H](NC(=O)OC(C)(C)C)C(=O)N4C2)n3C(C)C)n1 [Compound 131]	> 8.00	7.00 to 8.00		
CC(C)n1c(O[C@@H]2C[C@H]3C(=O)N[C@]4(C(=O)NS(=O)(=O)C5(C)CC5)C[C@H]4/C=C\CCCCC[C@H](N)C(=O)N3C2)nc2c(-c3nc(C(F)(F)F)cs3)cccc21 [Compound 175]	> 8.00	7.00 to 8.00		
Cc1ccc(Cc2csc(-c3cccc4c3nc(O[C@@H]3C[C@H]5C(=O)N[C@]6(C(=O)NS(=O)(=O)N(C)C)C[C@H]6/C=C\CCCCC[C@H](NC(=O)OC(C)(C)C)C(=O)N5C3)n4C(C)C)n2)cc1 [Compound 146]	> 8.00	> 8.00		
C#CC1(S(=O)(=O)NC(=O)[C@@]23C[C@H]2/C=C\CCCCC[C@H](NC(=O)OC(C)(C)C)C(=O)N2C[C@H](Oc4nc5c(-c6nc(C7CCCCC7)cs6)cccc5n4C(C)C)C[C@H]2C(=O)N3)CC1 [Compound 188]			> 8.00	> 8.00
CC(C)n1c(O[C@@H]2C[C@H]3C(=O)N[C@]4(C(=O)NS(=O)(=O)C5(C)CC5)C[C@H]4/C=C\CCCCC[C@H](NC(=O)OC(C)(C)C)C(=O)N3C2)nc2c(-c3nc(-c4ccc(Br)cc4)cs3)cccc21 [Compound 106]	> 8.00	< 7.00		
CC(C)n1c(O[C@@H]2C[C@H]3C(=O)N[C@]4(C(=O)NS(=O)(=O)N(C)C)C[C@H]4/C=C\CCCCC[C@H](NC(=O)OC(C)(C)C)C(=O)N3C2)nc2c(-c3nc(-c4ccc(Cl)c(Cl)c4)cs3)cccc21 [Compound 138]	> 8.00	< 7.00		
CC(C)n1c(O[C@@H]2C[C@H]3C(=O)N[C@]4(C(=O)NS(=O)(=O)C5(C)CC5)C[C@H]4/C=C\CCCCC[C@H](NC(=O)OC(C)(C)C)C(=O)N3C2)nc2c(-c3nc(-c4ccc(C(C)(C)C)cc4)cs3)cccc21 [Compound 113]	> 8.00	7.00 to 8.00		
CC(C)c1csc(-c2cc(O[C@@H]3C[C@H]4C(=O)N[C@]5(C(=O)NS(=O)(=O)C6(C)CC6)C[C@H]5/C=C\CCCCC[C@H](NC(=O)OC(C)(C)C)C(=O)N4C3)c3c(n2)CCCC3)n1 [Compound 406]	> 8.00	> 8.00		
CC(C)c1csc(-c2nc3c(c(O[C@@H]4C[C@H]5C(=O)N[C@]6(C(=O)NS(=O)(=O)C7(C)CC7)C[C@H]6/C=C\CCCCC[C@H](N)C(=O)N5C4)n2)CCCC3)n1 [Compound 304]	7.00 to 8.00			< 7.00
CC(C)n1c(O[C@@H]2C[C@H]3C(=O)N[C@]4(C(=O)NS(=O)(=O)N(C)C)C[C@H]4/C=C\CCCCC[C@H](NC(=O)OC(C)(C)C)C(=O)N3C2)nc2c(-c3nc(-c4ccc(F)cc4F)cs3)cccc21 [Compound 139]	> 8.00	7.00 to 8.00		
CC#CC1(S(=O)(=O)NC(=O)[C@@]23C[C@H]2/C=C\CCCCC[C@H](NC(=O)OC(C)(C)C)C(=O)N2C[C@H](Oc4nc5c(-c6nc(C7CCCCC7)cs6)cccc5n4C(C)C)C[C@H]2C(=O)N3)CC1 [Compound 189]	> 8.00	> 8.00		
CC(C)n1c(O[C@@H]2C[C@H]3C(=O)N[C@]4(C(=O)NS(=O)(=O)N(C)C)C[C@H]4/C=C\CCCCC[C@H](NC(=O)OC(C)(C)C)C(=O)N3C2)nc2c(-c3nc(Cc4ccc(OC(F)(F)F)cc4)cs3)cccc21 [Compound 155]	> 8.00	7.00 to 8.00		
CC(C)n1c(O[C@@H]2C[C@H]3C(=O)N[C@]4(C(=O)NS(=O)(=O)N(C)C)C[C@H]4/C=C\CCCCC[C@H](N)C(=O)N3C2)nc2c(-c3csc(N4CCCCC4)n3)cccc21 [Compound 169]	> 8.00	< 7.00		
COc1ccc(Cc2csc(-c3cccc4c3nc(O[C@@H]3C[C@H]5C(=O)N[C@]6(C(=O)NS(=O)(=O)N(C)C)C[C@H]6/C=C\CCCCC[C@H](NC(=O)OC(C)(C)C)C(=O)N5C3)n4C(C)C)n2)cc1 [Compound 157]	> 8.00	> 8.00		
COc1ccccc1-c1csc(-c2cccc3c2nc(O[C@@H]2C[C@H]4C(=O)N[C@]5(C(=O)NS(=O)(=O)C6(C)CC6)C[C@H]5/C=C\CCCCC[C@H](N)C(=O)N4C2)n3C(C)C)n1 [Compound 177]	> 8.00	< 7.00		
COc1ccccc1Cc1csc(-c2cccc3c2nc(O[C@@H]2C[C@H]4C(=O)N[C@]5(C(=O)NS(=O)(=O)N(C)C)C[C@H]5/C=C\CCCCC[C@H](NC(=O)OC(C)(C)C)C(=O)N4C2)n3C(C)C)n1 [Compound 147]	> 8.00	> 8.00		
CC(C)n1c(O[C@@H]2C[C@H]3C(=O)N[C@]4(C(=O)NS(=O)(=O)C5(C)CC5)C[C@H]4/C=C\CCCCC[C@H](NC(=O)OC(C)(C)C)C(=O)N3C2)nc2c(-c3nc(C(F)(F)F)cs3)cccc21 [Compound 174]	> 8.00	> 8.00		
CC(C)(C)OC(=O)N[C@H]1CCCCC/C=C\[C@@H]2C[C@@]2(C(=O)NS(=O)(=O)C2(C)CC2)NC(=O)[C@@H]2C[C@@H](Oc3nc4cccc(-c5nc(C6CCCCC6)cs5)c4nc3C(F)(F)F)CN2C1=O [Compound 701]	> 8.00	< 7.00		
COc1cccc(Cc2csc(-c3cccc4c3nc(O[C@@H]3C[C@H]5C(=O)N[C@]6(C(=O)NS(=O)(=O)C7(C)CC7)C[C@H]6/C=C\CCCCC[C@H](NC(=O)OC(C)(C)C)C(=O)N5C3)n4C(C)C)n2)c1 [Compound 123]	> 8.00	> 8.00		
CC(C)n1c(O[C@@H]2C[C@H]3C(=O)N[C@]4(C(=O)NS(=O)(=O)C5(C)CC5)C[C@H]4/C=C\CCCCC[C@H](NC(=O)OC(C)(C)C)C(=O)N3C2)nc2c(-c3nc(C4CCOCC4)cs3)cccc21 [Compound 181]	> 8.00	> 8.00		
CC(C)n1c(O[C@@H]2C[C@H]3C(=O)N[C@]4(C(=O)NS(=O)(=O)C5(C)CC5)C[C@H]4/C=C\CCCCC[C@H](NC(=O)OC(C)(C)C)C(=O)N3C2)nc2c(-c3nc(-c4ccc(F)c(F)c4)cs3)cccc21 [Compound 108]	> 8.00	> 8.00		
COc1cccc(-c2csc(-c3cccc4c3nc(O[C@@H]3C[C@H]5C(=O)N[C@]6(C(=O)NS(=O)(=O)C7(C)CC7)C[C@H]6/C=C\CCCCC[C@H](NC(=O)OC(C)(C)C)C(=O)N5C3)n4C(C)C)n2)c1 [Compound 103]	> 8.00	> 8.00		
CC(C)n1c(O[C@@H]2C[C@H]3C(=O)N[C@]4(C(=O)NS(=O)(=O)N(C)C)C[C@H]4/C=C\CCCCC[C@H](NC(=O)OC(C)(C)C)C(=O)N3C2)nc2c(-c3csc(N4CCCC4)n3)cccc21 [Compound 158]	> 8.00	> 8.00		
CC(C)n1c(O[C@@H]2C[C@H]3C(=O)N[C@]4(C(=O)NS(=O)(=O)C5(C)CC5)C[C@H]4/C=C\CCCCC[C@H](NC(=O)OC(C)(C)C)C(=O)N3C2)nc2c(-c3nc(Cc4cccc(OC(F)(F)F)c4)cs3)cccc21 [Compound 120]	> 8.00	7.00 to 8.00		
CC(C)(C)OC(=O)N[C@H]1CCCCC/C=C\[C@@H]2C[C@@]2(C(=O)NS(=O)(=O)C2(C)CC2)NC(=O)[C@@H]2C[C@@H](Oc3nc(-c4ccccc4)cc4c3CCCC4)CN2C1=O [Compound 404]	> 8.00	< 7.00		
CC(C)(C)OC(=O)N[C@H]1CCCCC/C=C\[C@@H]2C[C@@]2(C(=O)NS(=O)(=O)C2(C)CC2)NC(=O)[C@@H]2C[C@@H](Oc3nc4cccc(-c5nc(-c6ccccc6)cs5)c4s3)CN2C1=O [Compound 201]	> 8.00	> 8.00		
